Experiments:
[1] = test system: THP-1 monocytic leukemia cells; assay: Anticancer cell cytotoxicity assay; assay type: cell-based; settings: Homo sapiens, THP-1, 24 h, read-out: THP-1 IC50 (μM)
[2] = test system: LS174T colorectal adenocarcinoma cells; assay: Anticancer cell cytotoxicity assay; assay type: cell-based; settings: Homo sapiens, 24 h, read-out: LS174T IC50 (μM)
[3] = target: T1, human neutrophil elastase (HNE) (Homo sapiens, UniProt P08246); assay: HNE inhibitory assay; assay type: biochemical
T1 sequence (P08246 30-247 limits assumed): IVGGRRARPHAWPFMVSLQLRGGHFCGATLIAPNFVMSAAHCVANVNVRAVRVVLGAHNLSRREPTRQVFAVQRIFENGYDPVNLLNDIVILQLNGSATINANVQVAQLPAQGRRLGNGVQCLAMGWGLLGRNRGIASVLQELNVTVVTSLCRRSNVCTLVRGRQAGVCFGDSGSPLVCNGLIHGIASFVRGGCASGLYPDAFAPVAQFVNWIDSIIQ

[4] = test system: primary peripheral blood mononuclear cells (PBMCs); assay: Cytotoxicity assay; assay type: cell-based; settings: Homo sapiens, PBMC, 24 h, read-out: PBMCs IC50 (μM)
[5] = test system: HL60 promyelocytic leukemia cells; assay: Anticancer cell cytotoxicity assay; assay type: cell-based; settings: Homo sapiens, HL-60, 24 h, read-out: HL60 IC50 (μM)
[6] = test system: A549 lung carcinoma cells; assay: Anticancer cell cytotoxicity assay; assay type: cell-based; settings: Homo sapiens, A549, 24 h, read-out: A549 IC50 (μM)
Jurkat T cells = assay: Anticancer cell cytotoxicity assay; assay type: cell-based; settings: Homo sapiens, 24 h, read-out: Jurkat IC50 (μM)
[7] = test system: nine tumor cell lines and primary PBMCs; assay: Cytotoxicity across the panel of nine tumor cell lines and PBMCs; assay type: cell-based, human; settings: 24 h, up to 50 μM
[8] = test system: MonoMac6 monocytic leukemia cells; assay: Anticancer cell cytotoxicity assay; assay type: cell-based; settings: Homo sapiens, MONO-MAC-6, 24 h, read-out: MonoMac6 IC50 (μM)
[9] = test system: SW-982 synovial sarcoma cells; assay: Anticancer cell cytotoxicity assay; assay type: cell-based; settings: Homo sapiens, SW982, 24 h, read-out: SW-982 IC50 (μM)
U936 = assay: Anticancer cell cytotoxicity assay; assay type: cell-based; settings: Homo sapiens, 24 h, read-out: U936 IC50 (μM)
MKK7 = target: T2, MKK7 (Homo sapiens, UniProt O14733); assay: KINOMEscan kinase binding assay
T2 sequence (O14733 1-419): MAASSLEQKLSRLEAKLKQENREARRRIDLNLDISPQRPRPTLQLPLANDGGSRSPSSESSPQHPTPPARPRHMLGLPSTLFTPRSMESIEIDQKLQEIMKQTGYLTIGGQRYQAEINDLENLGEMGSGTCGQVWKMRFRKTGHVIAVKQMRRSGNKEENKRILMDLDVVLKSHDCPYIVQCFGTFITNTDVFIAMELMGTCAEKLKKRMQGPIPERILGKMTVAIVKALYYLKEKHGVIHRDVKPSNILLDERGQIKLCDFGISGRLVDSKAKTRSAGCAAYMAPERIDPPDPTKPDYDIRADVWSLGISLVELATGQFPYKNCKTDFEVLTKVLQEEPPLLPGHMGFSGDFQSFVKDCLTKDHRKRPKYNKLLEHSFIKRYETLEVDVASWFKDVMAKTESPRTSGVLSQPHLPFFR

[10] = test system: MCF7 breast adenocarcinoma cells; assay: Anticancer cell cytotoxicity assay; assay type: cell-based; settings: Homo sapiens, MCF7, 24 h, read-out: MCF7 IC50 (μM)

How did the IC50 [1] turn out when `CC(C)=CCC1=C(O)C(=O)c2ccccc2C1=O` [Compound 3, lapachol] was run?
Its IC50 is over 50 µM.

And the IC50 [2]?
Its IC50 is over 50 µM.

What about the IC50 [3] of the same molecule?
Its IC50 is over 50 µM.

What about the IC50 [4] of the same molecule?
The IC50 was over 50 µM.

What about the IC50 [5] of the same molecule?
The IC50 was over 50 µM.

And the IC50 [6]?
The IC50 was over 50 µM.

What about the IC50 (Jurkat T cells) of the same molecule?
Its IC50 is over 50 µM.

And the “cytotoxicity toward tumor cell lines and PBMCs (in words)” value [7]?
Its value is “did not find any toxicity”.

What about the IC50 [8] of the same molecule?
Its IC50 is over 50 µM.

What about the IC50 [9] of the same molecule?
Its IC50 is over 50 µM.

And the IC50 (U936)?
The IC50 was over 50 µM.

And the Kd (MKK7)?
Its Kd is over 30 µM.

What about the “Kd (μM) vs MKK7” value (MKK7; KINOMEscan, duplicate, maximum concentration 30 μM) of the same molecule?
The value was “did not bind”.

What about the IC50 [10] of the same molecule?
The IC50 was over 50 µM.

Reference: publication PMC6925601 (European journal of medicinal chemistry, 2019)
